Measured values published in US8778919B2, “Cyclic anilino—pyridinotriazines” (Janssen Pharmaceutica NV, priority 2005, dated 2014).

Tests used:
Assay type in all cases: biochemical
GSK-3α = GSK-3α (Homo sapiens, UniProt P49840); assay: GSK-3 kinase assay (C1), GSK-3α; details: 1 μM ATP, read-out: C1 Score α
Protocol: (§1) In vitro GSK-3 assays were performed at room temperature in a 100 μl reaction volume of 25 mM Tris (pH 7.4) containing 10 mM MgCl2.6H2O, 1 mM DTT, 0.1 mg/ml BSA, 5% glycerol, 5.7 ng/μl GSK-3β or 0.25 ng/μl GSK-3α, 5 μM biotinylated CREB peptide, 1 μM ATP, 0.85 μCi/ml ^33P-ATP and a suitable amount of a test compound. After one hour, the reaction was terminated by adding 70 μl of Stop mix (0.1 mM ATP, 5 mg/ml streptavidin coated PVT SPA beads, pH 11.0). The beads were allowed to settle overnight and the radioactivity attached to the beads was counted in a microtiter plate scintillation counter and compared with the results obtained in a control experiment (without the presence of a test compound) in order to determine the percentage of GSK-3 inhibition. The IC50 value, i.e. the concentration (M) of the test compound at which 50% of GSK-3 is inhibited, was calculated from the dose response curve obtained by performing the above-described GSK-3 assay in the presence of different amounts of the test compound. Score 1=pIC50 value<6, Score 2=pIC50 value from 6-7, Score 3=pIC50 value from 7-8, Score 4=pIC50 value>8.

GSK-3β = GSK-3β (Homo sapiens, UniProt P49841); assay: GSK-3 kinase assay (C1), GSK-3β; details: 1 μM ATP; for IC50: read-out: C1 Score β
GSK-3β, sequence (P49841 whole entry, species assumed): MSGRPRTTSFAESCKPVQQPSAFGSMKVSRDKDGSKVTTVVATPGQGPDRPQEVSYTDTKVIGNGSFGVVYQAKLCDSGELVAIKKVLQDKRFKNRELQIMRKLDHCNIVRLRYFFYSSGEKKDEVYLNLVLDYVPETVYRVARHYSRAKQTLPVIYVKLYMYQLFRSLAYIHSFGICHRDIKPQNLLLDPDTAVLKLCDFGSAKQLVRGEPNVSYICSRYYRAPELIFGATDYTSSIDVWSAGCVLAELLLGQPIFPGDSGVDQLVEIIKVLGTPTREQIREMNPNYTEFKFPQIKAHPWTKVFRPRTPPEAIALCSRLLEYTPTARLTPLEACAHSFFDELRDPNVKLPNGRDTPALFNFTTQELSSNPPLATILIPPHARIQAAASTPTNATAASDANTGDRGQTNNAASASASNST
Protocol: as §1

CDK1/cyclinB (h) = CDK1/cyclinB (h) (Homo sapiens, UniProt P06493); assay: Kinase profiling C3.2 CDK1/cyclinB human; details: test concentration of 10^−6 M
CDK1/cyclinB (h), sequence (P06493 whole entry): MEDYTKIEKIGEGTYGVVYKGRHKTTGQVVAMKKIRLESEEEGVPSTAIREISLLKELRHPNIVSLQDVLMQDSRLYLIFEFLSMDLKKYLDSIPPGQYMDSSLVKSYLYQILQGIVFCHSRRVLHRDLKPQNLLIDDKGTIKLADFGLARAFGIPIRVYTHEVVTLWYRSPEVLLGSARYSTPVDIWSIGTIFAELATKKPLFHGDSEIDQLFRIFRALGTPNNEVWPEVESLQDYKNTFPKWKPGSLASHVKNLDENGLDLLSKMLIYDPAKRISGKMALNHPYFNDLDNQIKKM
CDK1/cyclinB (h), sequence (P14635 whole entry partner): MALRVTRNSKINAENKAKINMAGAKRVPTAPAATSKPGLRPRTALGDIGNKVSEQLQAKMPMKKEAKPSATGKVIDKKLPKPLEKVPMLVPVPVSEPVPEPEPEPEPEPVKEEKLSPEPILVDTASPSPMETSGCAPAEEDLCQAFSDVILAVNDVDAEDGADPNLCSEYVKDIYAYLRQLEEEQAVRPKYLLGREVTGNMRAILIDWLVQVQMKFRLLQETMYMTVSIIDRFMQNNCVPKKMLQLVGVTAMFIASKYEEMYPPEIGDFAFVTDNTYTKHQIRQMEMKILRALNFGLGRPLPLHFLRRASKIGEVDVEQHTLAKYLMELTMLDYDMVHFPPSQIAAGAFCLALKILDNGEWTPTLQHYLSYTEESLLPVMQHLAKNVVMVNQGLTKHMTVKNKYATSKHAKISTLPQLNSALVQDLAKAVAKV
Protocol: (§2) The in vitro inhibition of a panel of kinases was assessed using either the glass-fiber filter technology as described by Davies, S. P. et al., Biochem J. (2000), 351; p. 95-105. In the glass-fiber filter technology the activity of the kinase of interest is measured using an appropriate substrate that is incubated with the aforementioned kinase protein in the presence of (^33P) radiolabeled ATP. (^33P) Phosporylation of the substrate is subsequently measured as radioactivity bound on a glassfiber-filter.
(§3) All kinases are pre-diluted to a 10× working concentration prior to addition into the assay. The composition of the dilution buffer for each kinase is detailed below.
(§4) All substrates are dissolved and diluted to working stocks in de-ionised water, apart from histone H1 that is stored in 10× working stock in 20 mM MOPS pH 7.4.
(§5) In a final reaction volume of 25 μl, CDK1/cyclinB (h) (5-10 mU) is incubated with 8 mM MOPS pH 7.0, 0.2 mM EDTA, 0.1 mg/ml histone H1, 10 mM MgAcetate and [γ-^33P-ATP] (specific activity approx. 500 cpm/pmol, concentration as required). The reaction is initiated by the addition of the MgATP mix. After incubation for 40 minutes at room temperature, the reaction is stopped by the addition of 5 μl of a 3% phosphoric acid solution. 10 μl of the reaction is then spotted onto a P30 filtermat and washed three times for 5 minutes in 75 mM phosphoric acid and once in methanol prior to drying and scintillation counting.

CDK2/cyclinA (h) = CDK2/cyclinA (h) (Homo sapiens, UniProt P24941); assay: Kinase profiling C3.3 CDK2/cyclinA human; details: test concentration of 10^−6 M
Protocol: as §2, §3, §4
as §5, with “CDK2/cyclinA” for “CDK1/cyclinB”

CDK2/cyclinE (h) = CDK2/cyclinE (h) (Homo sapiens, UniProt P24941); assay: Kinase profiling C3.4 CDK2/cyclinE human; details: test concentration of 10^−6 M
Protocol: as §2, §3, §4
as §5, with “CDK2/cyclinE” for “CDK1/cyclinB”

CDK3/cyclinE (h) = CDK3/cyclinE (h) (Homo sapiens, UniProt Q00526); assay: Kinase profiling C3.5 CDK3/cyclinE human; details: test concentration of 10^−6 M
Protocol: as §2, §3, §4
as §5, with “CDK3/cyclinE” for “CDK1/cyclinB”

CDK5/p35 human = CDK5/p35 human (Homo sapiens, UniProt Q00535); assay: Kinase profiling C3.6 CDK5/p35 human; details: CDK5/p35, test concentration of 10^−6 M
CDK5/p35 human, sequence (Q00535 whole entry): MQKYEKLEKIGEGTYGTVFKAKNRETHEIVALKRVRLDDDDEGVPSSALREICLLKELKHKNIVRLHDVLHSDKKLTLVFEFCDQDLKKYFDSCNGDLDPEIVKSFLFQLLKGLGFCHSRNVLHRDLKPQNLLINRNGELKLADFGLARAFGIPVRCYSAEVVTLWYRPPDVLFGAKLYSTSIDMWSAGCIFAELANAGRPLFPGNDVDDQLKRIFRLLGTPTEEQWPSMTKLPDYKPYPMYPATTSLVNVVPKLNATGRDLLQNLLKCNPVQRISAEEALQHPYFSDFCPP
CDK5/p35 human, sequence (Q15078 whole entry partner): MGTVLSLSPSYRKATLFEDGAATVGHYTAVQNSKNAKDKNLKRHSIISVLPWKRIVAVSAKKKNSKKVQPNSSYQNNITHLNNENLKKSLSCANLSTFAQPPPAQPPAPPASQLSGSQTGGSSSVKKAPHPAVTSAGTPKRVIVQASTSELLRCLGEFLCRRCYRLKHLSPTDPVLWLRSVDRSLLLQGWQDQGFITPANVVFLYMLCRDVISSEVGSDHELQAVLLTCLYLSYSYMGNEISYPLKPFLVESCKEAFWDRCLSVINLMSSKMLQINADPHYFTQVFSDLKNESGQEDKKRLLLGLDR
Protocol: as §2, §3, §4
as §5, with “CDK5/p35 human” for “CDK1/cyclinB (h)”

CDK6/cyclinD3 human = CDK6/cyclinD3 human (Homo sapiens, UniProt Q00534); assay: Kinase profiling C3.7 CDK6/cyclinD3 human; details: CDK6/cyclinD3, test concentration of 10^−6 M
CDK6/cyclinD3 human, sequence (Q00534 whole entry): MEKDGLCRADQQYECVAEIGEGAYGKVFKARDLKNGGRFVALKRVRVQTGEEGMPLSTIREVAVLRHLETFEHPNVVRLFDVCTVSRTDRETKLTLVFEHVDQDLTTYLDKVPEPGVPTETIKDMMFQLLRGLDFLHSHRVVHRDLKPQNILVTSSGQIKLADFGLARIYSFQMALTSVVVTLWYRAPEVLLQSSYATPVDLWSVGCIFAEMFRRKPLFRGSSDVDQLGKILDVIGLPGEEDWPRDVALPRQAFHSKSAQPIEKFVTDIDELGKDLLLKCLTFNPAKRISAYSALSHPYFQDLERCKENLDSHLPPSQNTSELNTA
CDK6/cyclinD3 human, sequence (P30281 whole entry partner): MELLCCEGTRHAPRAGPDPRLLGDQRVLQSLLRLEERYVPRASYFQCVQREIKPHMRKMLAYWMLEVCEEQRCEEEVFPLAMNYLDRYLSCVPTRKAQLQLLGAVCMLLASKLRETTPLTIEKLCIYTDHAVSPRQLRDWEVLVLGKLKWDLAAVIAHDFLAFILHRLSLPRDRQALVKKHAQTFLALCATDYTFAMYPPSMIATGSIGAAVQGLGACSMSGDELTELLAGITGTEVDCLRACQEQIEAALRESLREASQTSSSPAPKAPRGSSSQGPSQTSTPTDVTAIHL
Protocol: as §2, §3, §4
as §5, with “CDK6/cyclinD3 human” for “CDK1/cyclinB (h)”

CDK7/cyclinH/MAT1 (h) = CDK7/cyclinH/MAT1 (h) (Homo sapiens, UniProt P50613); assay: Kinase profiling C3.8 CDK7/cyclinH/MAT1 human; details: CDK7/cyclinH/MAT1, test concentration of 10^−6 M
CDK7/cyclinH/MAT1 (h), sequence (P50613 whole entry): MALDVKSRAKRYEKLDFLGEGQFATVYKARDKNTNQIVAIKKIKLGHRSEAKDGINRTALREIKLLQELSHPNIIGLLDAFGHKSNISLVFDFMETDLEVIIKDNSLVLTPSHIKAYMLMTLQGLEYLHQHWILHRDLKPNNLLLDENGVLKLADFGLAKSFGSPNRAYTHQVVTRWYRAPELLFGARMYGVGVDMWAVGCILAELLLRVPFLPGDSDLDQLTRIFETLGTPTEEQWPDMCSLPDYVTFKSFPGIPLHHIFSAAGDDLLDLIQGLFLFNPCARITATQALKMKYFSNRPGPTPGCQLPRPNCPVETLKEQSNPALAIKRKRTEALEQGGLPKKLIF
CDK7/cyclinH/MAT1 (h), sequence (P51946 whole entry partner): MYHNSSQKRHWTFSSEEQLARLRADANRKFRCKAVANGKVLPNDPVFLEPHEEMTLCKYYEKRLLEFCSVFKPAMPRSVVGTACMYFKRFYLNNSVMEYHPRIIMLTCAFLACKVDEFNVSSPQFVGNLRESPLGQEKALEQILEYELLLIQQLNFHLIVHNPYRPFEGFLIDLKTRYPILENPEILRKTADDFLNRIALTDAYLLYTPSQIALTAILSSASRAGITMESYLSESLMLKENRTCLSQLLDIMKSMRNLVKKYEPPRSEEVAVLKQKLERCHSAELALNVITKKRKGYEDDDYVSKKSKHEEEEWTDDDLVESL
CDK7/cyclinH/MAT1 (h), sequence (P51948 whole entry partner): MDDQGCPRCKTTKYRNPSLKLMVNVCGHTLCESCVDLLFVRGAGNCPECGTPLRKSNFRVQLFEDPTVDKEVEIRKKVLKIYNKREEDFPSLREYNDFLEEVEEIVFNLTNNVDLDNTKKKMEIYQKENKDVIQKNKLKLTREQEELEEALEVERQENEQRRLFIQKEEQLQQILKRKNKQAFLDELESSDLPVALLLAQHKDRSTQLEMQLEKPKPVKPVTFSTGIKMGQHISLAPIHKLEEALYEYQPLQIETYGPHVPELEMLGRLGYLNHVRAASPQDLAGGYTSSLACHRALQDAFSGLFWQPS
Protocol: as §2, §3, §4
as §5, with “CDK7/cyclinH/MAT1” for “CDK1/cyclinB”, “500 μM peptide,” for “0.1 mg/ml histone H1,”

GSK-3α, sequence (P49840 whole entry, species assumed): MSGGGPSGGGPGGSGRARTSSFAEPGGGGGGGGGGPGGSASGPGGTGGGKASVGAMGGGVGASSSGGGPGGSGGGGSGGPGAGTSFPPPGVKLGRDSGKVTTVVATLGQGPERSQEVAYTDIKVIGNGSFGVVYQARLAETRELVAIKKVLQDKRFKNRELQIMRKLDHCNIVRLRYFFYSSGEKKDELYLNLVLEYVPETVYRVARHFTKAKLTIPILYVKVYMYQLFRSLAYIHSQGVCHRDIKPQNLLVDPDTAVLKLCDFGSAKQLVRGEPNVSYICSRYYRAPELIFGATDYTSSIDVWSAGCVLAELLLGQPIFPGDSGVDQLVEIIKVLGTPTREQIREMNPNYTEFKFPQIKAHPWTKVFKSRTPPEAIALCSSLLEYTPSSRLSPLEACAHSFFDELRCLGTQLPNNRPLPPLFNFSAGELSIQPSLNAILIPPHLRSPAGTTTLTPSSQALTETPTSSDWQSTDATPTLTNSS

SMILES	IC50 (GSK-3α) [nM]	IC50 (GSK-3β) [nM]	C3.2 score (CDK1/cyclinB (h))	C3.3 score (CDK2/cyclinA (h))	C3.4 score (CDK2/cyclinE (h))	C3.5 score (CDK3/cyclinE (h))	C3.6 score (CDK5/p35 human)	C3.7 score (CDK6/cyclinD3 human)	C3.8 score (CDK7/cyclinH/MAT1 (h))	C1 Score β (GSK-3β)
CN1CCC(=O)NCCNc2cc(ccn2)-c2ncnc(n2)Nc2cccc(c2)C1 [Compound 17]	10 to 100	10 to 100	4 (Score 4 = >80% inhibition)	4 (Score 4 = >80% inhibition)	4 (Score 4 = >80% inhibition)	4 (Score 4 = >80% inhibition)	4 (Score 4 = >80% inhibition)	2 (Score 2 = 30-60% inhibition)	3 (Score 3 = 60-80% inhibition)	
O=C1NCCNc2cc(ccn2)-c2ncnc(n2)Nc2cccc(c2)CN2CCC[C@H]12 [Compound 18]	100 to 1000	100 to 1000	3 (Score 3 = 60-80% inhibition)	4 (Score 4 = >80% inhibition)	4 (Score 4 = >80% inhibition)	3 (Score 3 = 60-80% inhibition)	2 (Score 2 = 30-60% inhibition)	1 (Score 1 = 10-30% inhibition)	2 (Score 2 = 30-60% inhibition)	
O=C1CCN2CCN(CC2)Cc2cccc(c2)Nc2ncnc(n2)-c2ccnc(c2)NCCN1 [Compound 19]	100 to 1000	10 to 100	4 (Score 4 = >80% inhibition)	4 (Score 4 = >80% inhibition)	4 (Score 4 = >80% inhibition)	4 (Score 4 = >80% inhibition)	3 (Score 3 = 60-80% inhibition)	2 (Score 2 = 30-60% inhibition)	2 (Score 2 = 30-60% inhibition)	
CN1CCC(=O)NCCNc2cc(ccn2)-c2ncnc(n2)Nc2cccc(c2)C1 [Compound 20]	100 to 1000		3 (Score 3 = 60-80% inhibition)	4 (Score 4 = >80% inhibition)	4 (Score 4 = >80% inhibition)	4 (Score 4 = >80% inhibition)	3 (Score 3 = 60-80% inhibition)	1 (Score 1 = 10-30% inhibition)	2 (Score 2 = 30-60% inhibition)	3 (Score 3=pIC50 value from 7-8)
O=C1NCCCNc2cc(ccn2)-c2ncnc(n2)Nc2cccc(c2)CN2CCC[C@@H]12 [Compound 21]	100 to 1000	100 to 1000	4 (Score 4 = >80% inhibition)	4 (Score 4 = >80% inhibition)	4 (Score 4 = >80% inhibition)	4 (Score 4 = >80% inhibition)	3 (Score 3 = 60-80% inhibition)	1 (Score 1 = 10-30% inhibition)	2 (Score 2 = 30-60% inhibition)	
O=C1NCCCc2cc(ccn2)-c2ncnc(n2)Nc2cc(Cl)cc(c2)CN2CCC[C@@H]12 [Compound 38]	100 to 1000	100 to 1000	4 (Score 4 = >80% inhibition)	4 (Score 4 = >80% inhibition)	4 (Score 4 = >80% inhibition)	3 (Score 3 = 60-80% inhibition)	2 (Score 2 = 30-60% inhibition)		3 (Score 3 = 60-80% inhibition)	
O=C1NCCCc2cc(ccn2)-c2ncnc(n2)Nc2cc(Cl)cc(c2)CN2CCCC1C2 (centres unmarked) [Compound 39]	100 to 1000	10 to 100	2 (Score 2 = 30-60% inhibition)	3 (Score 3 = 60-80% inhibition)	3 (Score 3 = 60-80% inhibition)	2 (Score 2 = 30-60% inhibition)	1 (Score 1 = 10-30% inhibition)		3 (Score 3 = 60-80% inhibition)	
O=C1CN2CCN(CC2)Cc2cccc(c2)Nc2ncnc(n2)-c2cccc(c2)NCCN1 [Compound 58]	10 to 100		2 (Score 2 = 30-60% inhibition)	3 (Score 3 = 60-80% inhibition)	2 (Score 2 = 30-60% inhibition)	1 (Score 1 = 10-30% inhibition)	2 (Score 2 = 30-60% inhibition)	1 (Score 1 = 10-30% inhibition)		
